The target of experiment [1] is T1, rat recombinant neurolysin (Rattus norvegicus, UniProt P42676).
T1 construct: polyhistidine (N); made in house; host or cells: Escherichia coli (pBAD/His vector)
In words: Enzymatic assay: QFS hydrolysis by rat recombinant neurolysin. To be noted: QFS 25 μM, compared to vehicle control; for % activity at 10: 10 μM compound; for % activity at (100): 100 μM compound. The format is biochemical. Here is the method: Rat recombinant neurolysin—N-terminal polyhistidine tagged recombinant rat neurolysin was produced in Escherichia coli using a plasmid construct in pBAD/His vector system (Invitrogen) kindly provided by Dr. David W. Rodgers (University of Kentucky) (32,33). Bacterial culture was carried out in Terrific Broth in 2 L Erlenmeyer flasks using an incubator shaker (1-2400, New Brunswick Scientific). Expression was induced by addition of arabinose (1 mM final concentration), the cells were pelleted 3 h after induction and stored at −80° C. freezer. Bacterial pellets were resuspended and lysed in phosphate buffer (20 mM NaH2PO4, 500 mM NaCl, 0.05% Tween-20, pH 8.0) containing 0.25 mg/ml lysozyme, 1 mM phenylmethylsulfonyl fluoride, 0.05 mg/ml DNAse and 0.02 mg/ml RNase, followed by brief sonication. After centrifugation (40,000×g, 20 min at 4° C.) the supernatant was applied to a Ni-NTA Superflow cartridge (Qiagen), followed by washing and elution of recombinant neurolysin with phosphate buffer containing 25 and 250 mM imidazole, respectively. The eluted protein was further purified by size exclusion chromatography using a TSK gel BioAssist G2SWxl column (Tosoh bioscience) in AKTA Purifier FPLC system (GE Healthcare). […] Specific activity of recombinant neurolysin was determined by an enzymatic assay described below.
All assays were initiated by addition of QFS (100 μl assay volume in 96-well plates), and each experimental sample was present in duplicate.
In all experiments, test compounds were incubated with neurolysin for 10 min at 37° C. before addition of the substrate to start the reaction. All test compounds were dissolved in DMSO at 10 to 50 mM stock concentrations.
Statistical Analyses—statistical analyses and curve fitting were conducted with GraphPad Prism 6.0 software. For each enzymatic reaction, slope of the line which represents the initial velocity (Vo) for the reaction progress curve was calculated using the liner regression model of the software (Vo=Slope=Δ fluorescent intensity of the reaction product/Δ time). EC50 values for the modulators were calculated by fitting initial velocity values for hydrolysis of QFS by neurolysin in the presence of varying concentrations of a modulator into a nonlinear regression model for the three-parameter log(stimulator) vs. response equation [Y=Bottom+(Top−Bottom)/(1+10^((Log EC50−X)))].

Another experiment has as its target T2, Neurolysin (Nln) (Rattus norvegicus, UniProt P42676).
T2 construct: polyhistidine (N); made in house; host or cells: Escherichia coli (pBAD/His vector), if the rat enzyme of b61 was used
In words: Nln activation in isolated enzyme assay (A50, Amax). The class given is biochemical. The settings on record: for EC50: read-out: A50 (concentration required to activate Nln by 50%).

The mark [2] stands for this setting: 100% = normal enzyme turnover, 95% CI in parentheses.

Where two headings read alike, the source gives them in different places. Square brackets hold non-standard residues; d marks the D form. Peptide text beside a SMILES is read from it. * marks the point of attachment. Tyr(3-NO2) = N[CH](Cc1ccc(O)c([N+](=O)[O-])c1)C(=O)O; Boc = CC(C)(C)OC(=O)*

T1 sequence (P42676 38-704): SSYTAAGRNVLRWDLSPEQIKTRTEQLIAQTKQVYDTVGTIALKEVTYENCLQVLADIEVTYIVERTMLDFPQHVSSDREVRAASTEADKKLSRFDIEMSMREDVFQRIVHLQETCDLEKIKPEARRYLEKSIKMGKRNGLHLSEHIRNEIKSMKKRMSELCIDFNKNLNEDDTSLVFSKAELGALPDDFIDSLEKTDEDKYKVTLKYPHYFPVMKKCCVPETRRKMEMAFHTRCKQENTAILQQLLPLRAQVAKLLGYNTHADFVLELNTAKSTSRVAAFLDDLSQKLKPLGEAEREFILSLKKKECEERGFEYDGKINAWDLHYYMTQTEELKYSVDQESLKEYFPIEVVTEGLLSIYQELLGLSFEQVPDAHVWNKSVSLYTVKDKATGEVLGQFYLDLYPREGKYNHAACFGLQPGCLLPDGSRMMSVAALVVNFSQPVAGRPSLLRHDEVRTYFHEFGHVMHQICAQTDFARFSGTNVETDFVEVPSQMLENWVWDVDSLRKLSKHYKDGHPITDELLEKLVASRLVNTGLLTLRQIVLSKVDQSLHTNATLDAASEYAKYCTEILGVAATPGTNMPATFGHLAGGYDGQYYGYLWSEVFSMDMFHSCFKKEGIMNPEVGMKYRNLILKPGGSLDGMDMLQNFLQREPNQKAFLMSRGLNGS
T2 sequence (P42676 38-704): as above

With `COCN1CCC2N(COC)CCC3N(COC)CCC1N23` (stereo not shown) [Compound 82001], in experiment [1], the “% activity at 10” value is 105% and the “% activity at (100)” value is 100%.
On the same counts, the results for `COC(=O)CCN1CCN(CCO)CC1C` (stereo not shown) [Compound 659264] are 104% and 107%.
On the same counts, the results for `NC1=C(O)/C(=N/NS(=O)(=O)c2ccccc2)C(c2ccc3c(c2)OCO3)O1` (stereo not shown) [Compound 640354] are 79% and 76%.
`Cc1cn(C(C=O)OC(C=O)CO)c(=O)[nH]c1=O` (stereo not shown) [Compound 266752]: in experiment [1], the “% activity at 10” value is 107% and the “% activity at (100)” value was determined as 97%.
The corresponding values for `CC(C)CC(NC(=O)C(N)CC(=O)O)C(=O)O` (stereo not drawn) [Compound 332636] (H-Asp-Leu-OH; configuration not given here) are 103% and 64%.
On the same counts, the results for `CC1CN(CCCN)C(C)CN1CCCN` (stereo not shown) [Compound 14541] are 97% and 103%.
On the same counts, the results for `COC1OC2COC(c3ccccc3)OC2C(N=Cc2ccccc2)C1O` (stereo not shown) [Compound 210826] are 101% and 105%.
For `CC1(C)CC(=O)C(CC(=O)c2ccccc2)=C(NN=C(N)N)C1` [Compound 282137], in experiment [1], the “% activity at 10” value was 106% and the “% activity at (100)” value is given as 94%.
Consider `Cl.NC(=O)C(Cc1ccc(O)cc1)NC(=O)C(N)Cc1c[nH]c2ccccc12` (stereo not drawn) [Compound 339919] (H-Trp-Tyr-NH2; configuration not given here), for which, in experiment [1], the “% activity at 10” value is 100% and the “% activity at (100)” value worked out at 63%.
Take `CNCCc1cn(C2OC(CO)C(O)C(O)C2O)cn1` (stereo not shown) [Compound 131922]: in experiment [1], the “% activity at 10” value is 96% and the “% activity at (100)” value worked out at 28%.
Consider `CCC1COc2nc(=O)c(C=NCCCN(C)C)c(N)n21` (stereo not shown) [Compound 608820], for which, in experiment [1], the “% activity at 10” value worked out at 102% and the “% activity at (100)” value came out at 108%.
On the same counts, the results for `O=P1(NCC2CCCO2)OCC2(CO1)COP(=O)(NCC1CCCO1)OC2` (stereo not shown) [Compound 88659] are 100% and 100%.
Regarding `O=C(O)C1C2C=CC(O2)C1C(=O)NCCCN1CCOCC1` (stereo not shown) [Compound 47096], in experiment [1], the “% activity at 10” value was determined as 101% and the “% activity at (100)” value turned out to be 111%.
The corresponding values for `NCC(SSC(CN)C(=O)O)C(=O)O` (stereo not shown) [Compound 302851] are 104% and 80%.
The corresponding values for `CN1CCC(O)(c2ccccc2)C(CCC(=O)N2CCCC2)C1.Cl` (stereo not shown) [Compound 15180] are 102% and 95%.
The corresponding values for `NCC(=O)N1CCC[C@H]1C(=O)NCC(=O)NCC(=O)O` [Compound 89624] (H-GPGG-OH) are 102% and 38%.
Regarding `O=C(O)CNC(=O)CNC(=O)c1ccc2ccccc2n1` [Compound 400844], in experiment [1], the “% activity at 10” value was found to be 104% and the “% activity at (100)” value is 84%.
The corresponding values for `CCCCCCN(C)C12CN3CN(CN(C3)C1)C2` [Compound 281707] are 109% and 113%.
On to `CC1(C)SC(C(NC(=O)Cc2ccccc2)C(=O)O)NC1C(=O)O` (stereo not shown) [Compound 163084], for which, in experiment [1], the “% activity at 10” value is listed as 103% and the “% activity at (100)” value is 102%.
As for `S=C(NCN1CCNCC1)C(=S)NCN1CCNCC1` [Compound 203396], in experiment [1], the “% activity at 10” value amounted to 102% and the “% activity at (100)” value is listed as 106%.
The corresponding values for `Clc1cc(Cl)c(C[N+]23CN4CN(CN(C4)C2)C3)cc1Cl.[Cl-]` [Compound 155877] are 82% and 4%.
Turning to `NCCCNCCSP(=O)(O)O` [Compound 296961], in experiment [1], the “% activity at 10” value came out at 106% and the “% activity at (100)” value came to 127%.
For `Cl.NC(=O)C(Cc1ccc(O)c([N+](=O)[O-])c1)NC(=O)C(N)Cc1ccccc1` (stereo not shown) [Compound 343028] (H-Phe-[Tyr(3-NO2)]-NH2; configuration not given here), in experiment [1], the “% activity at 10” value amounted to 98% and the “% activity at (100)” value came out at 73%.
On the same counts, the results for `CSCCC(N)[P+](=O)O` (stereo not shown) [Compound 359097] are 87% and 92%.
For the compound `N[C@H](Cc1c[nH]cn1)C(=O)NCc1ccc(OC(F)(F)F)cc1` [Compound 5q, (R)-2-amino-3-(1H-imidazol-4-yl)-N-(4-(trifluoromethoxy)benzyl)propanamide], the “Amax (maximum % activation achieved)” value on Neurolysin (Nln) was 337.1 (312 to 364.9) %.
Regarding `CC(C)(C)OC(=O)N[C@@H](Cc1c[nH]cn1)C(=O)N[C@H](Cc1ccccc1)C(=O)O` [NK-61-2A] (Boc-His-[dF]-OH), the “A50 (concentration required to activate Nln by 50%)” value at Neurolysin (Nln) (95% CI in parentheses) is “Inactive”. Further, the “Amax (maximum % activation achieved)” value at Neurolysin (Nln) (setting [2]) is given as “Inactive”.
Consider `N[C@@H](Cc1c[nH]cn1)C(=O)NCc1ccc2ccccc2c1` [DF-9-2], for which the EC50 on Neurolysin (Nln) (95% CI in parentheses) came to 12.3 µM. Besides, the “Amax (maximum % activation achieved)” value at Neurolysin (Nln) (setting [2]) is listed as 262.3 (246.7 to 279.4) %.
`N[C@@H](Cc1c[nH]cn1)C(=O)NCCCCc1ccccc1` [Compound 8a, (S)-2-amino-3-(1H-imidazol-4-yl)-N-(4-phenylbutyl)propanamide]: the “Amax (maximum % activation achieved)” value at Neurolysin (Nln) (setting [2]) is 328 (309-351) %.
Consider `N[C@H](Cc1c[nH]cn1)C(=O)NCc1ccc(F)cc1` [Compound 5o, (R)-2-amino-N-(4-fluorobenzyl)-3-(1H-imidazol-4-yl)propanamide], for which the “Amax (maximum % activation achieved)” value at Neurolysin (Nln) is given as 320.5 (299.7 to 343.9) %.
Turning to `N[C@@H](Cc1c[nH]cn1)C(=O)NCCCc1ccccc1` [Compound 7a, (S)-2-amino-3-(1H-imidazol-4-yl)-N-(3-phenylpropyl)propanamide], the “Amax (maximum % activation achieved)” value on Neurolysin (Nln) (setting [2]) is recorded as 288.1 (273.6 to 303.8) %.
The same measure, in the same setting: as for `COc1cccc(CCNC(=O)[C@H](N)Cc2c[nH]cn2)c1` [SR15-1d], the figure is 255.3 (230.5 to 284.8) %; as for `N[C@H](Cc1c[nH]cn1)C(=O)NCc1cccc2ccccc12` [SR-10-1d], 343 (325.2 to 363.5) %.
On to `N[C@H](Cc1c[nH]cn1)C(=O)Nc1ccccc1` [Compound 6b, (R)-2-amino-3-(1H-imidazol-4-yl)-N-phenylpropanamide], for which, at Neurolysin (Nln) (95% CI in parentheses), the EC50 stood at 114 µM. The “Amax (maximum % activation achieved)” value on Neurolysin (Nln) (setting [2]) was 440.3 (414.9 to 470.4) %.
As to `N[C@@H](Cc1c[nH]cn1)C(=O)NCc1ccc(OC(F)(F)F)cc1` [Compound 5p], the “Amax (maximum % activation achieved)” value on Neurolysin (Nln) was 310 (287.2 to 336.1) %.
On to `N[C@@H](Cc1ccc(O)cc1)C(=O)N[C@H](Cc1c[nH]cn1)C(=O)O` [Compound 4a, H-Try-His-OH] (H-Tyr-[dH]-OH), for which the “Nln activation (in words)” value on Neurolysin (Nln) is given as “complete amelioration of Nln activation”. On Neurolysin (Nln) (95% CI in parentheses), the “A50 (concentration required to activate Nln by 50%)” value is “Inactive”. Also, the “Amax (maximum % activation achieved)” value on Neurolysin (Nln) (setting [2]) was “Inactive”.
As for `COc1cccc(CNC(=O)[C@@H](N)Cc2c[nH]cn2)c1` [Compound 5f], the “Amax (maximum % activation achieved)” value on Neurolysin (Nln) is 327.5 (309.7 to 348.2) %.
As for `N[C@@H](Cc1c[nH]cn1)C(=O)NCCc1cc2ccccc2[nH]1` [SR-7-2d], on Neurolysin (Nln), the “Amax (maximum % activation achieved)” value is reported as 259 (240.7 to 281) %.
`COc1ccc(CCNC(=O)[C@@H](N)Cc2c[nH]cn2)cc1` [AB-1-4-2]: the “Amax (maximum % activation achieved)” value on Neurolysin (Nln) (setting [2]) was 544 (492.2 to 609.4) %.
Take `N[C@H](Cc1c[nH]cn1)C(=O)NCCc1ccc([N+](=O)[O-])cc1` [Compound 4p, (R)-2-amino-3-(1H-imidazol-4-yl)-N-(4-nitrophenethyl)propanamide]: on Neurolysin (Nln), the “Amax (maximum % activation achieved)” value is reported as 267.5 (250.1 to 287.1) %.
On to `N[C@@H](Cc1c[nH]cn1)C(=O)NCCc1ccccc1` [NK-61-4A], for which the “Amax (maximum % activation achieved)” value on Neurolysin (Nln) (setting [2]) is reported as 231 (216.2 to 248.9) %.
Consider `N[C@@H](Cc1c[nH]cn1)C(=O)NCCc1ccc(F)cc1` [DF-2-2B], for which the EC50 on Neurolysin (Nln) (95% CI in parentheses) was 27.9 µM. Moreover, the “Amax (maximum % activation achieved)” value at Neurolysin (Nln) (setting [2]) is 323.1 (311.4 to 335.6) %.
For the compound `N[C@@H](Cc1c[nH]cn1)C(=O)N[C@@H](Cc1ccc(O)cc1)C(=O)O` [Compound 1, Histidine-tyrosine] (H-His-Tyr-OH), the “Amax (maximum % activation achieved)” value at Neurolysin (Nln) (setting [2]) is listed as 467 (424.9 to 516.9) %; at Neurolysin (Nln) (100% = normal enzyme turnover, 95% CI in parentheses, listed as His-Tyr), 467 (424.9 to 516.9) %.

The record behind these values is patent US20210198647A1, “Enhancers of Neurolysin Activity” (Texas Tech University System, priority 2018, published 2021).
